Measurements reported in patent US4882432A, “Polycyclic-carbamic acid piperazinoalkyl esters and amides” (American Home Products Corporation, priority 1989, dated 1989).

What was measured:
[1] = literature; cited from earlier work
[2] = target: T1, limbic D2 (dopamine) receptor (Rattus norvegicus, UniProt P61169); assay: inhibition of ^3 H-spiroperidol binding to limbic brain tissue (D2 receptor affinity); settings: 1 μM test compound, read-out: % Inhibition at 1 μM (Affinity for D2 Receptor Sites)
T1 construct: from tissue
T1 sequence (P61169 whole entry): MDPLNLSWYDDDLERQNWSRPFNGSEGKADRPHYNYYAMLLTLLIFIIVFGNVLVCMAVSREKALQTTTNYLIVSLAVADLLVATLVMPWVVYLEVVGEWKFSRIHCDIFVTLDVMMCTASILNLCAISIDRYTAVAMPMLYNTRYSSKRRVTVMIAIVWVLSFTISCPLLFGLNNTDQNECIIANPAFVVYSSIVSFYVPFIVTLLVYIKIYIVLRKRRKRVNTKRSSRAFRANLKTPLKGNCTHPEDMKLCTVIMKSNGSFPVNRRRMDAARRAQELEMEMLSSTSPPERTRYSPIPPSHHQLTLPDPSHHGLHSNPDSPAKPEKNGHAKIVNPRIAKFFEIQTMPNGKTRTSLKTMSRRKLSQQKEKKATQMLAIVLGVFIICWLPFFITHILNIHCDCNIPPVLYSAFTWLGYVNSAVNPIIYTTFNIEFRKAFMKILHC
Description: The compounds of this invention are antidepressant, anxiolytic agents useful in the treatment of depression and/or anxiety as a singular, primary mental problem as well as secondary, attending problems such as sexual dysfunction. […] The D2 receptor affinity of the compounds of this invention was determined by a modification of the test procedure of Fields et al., Brain Res. 136, 578 (1977) and Yamamura et al., eds., Neurotransmitter Receptor Binding, Raven Press, N.Y. (1978) as discussed in U.S. Pat. No. 4,636,563. The percentage reduction of ^3 H-spiroperidol binding at 1 μM concentration of test compound is reported, infra.

[3] = target: T2, 5-HT1A serotonin receptor subtype (Rattus norvegicus, UniProt P19327); assay: displacement of ^3 H-8-OH DPAT from the 5-HT1A serotonin receptor subtype (Hall et al.); assay type: binding; settings: for inhibition at 1 µM: 1 μM test compound, read-out: % Inhibition at 1 μM (Affinity for 5-HT1A Receptor Sites); for Ki: calculated from IC50 values, read-out: Ki (Affinity for 5-HT1A Receptor Sites)
T2 construct: from tissue
T2 sequence (P19327 1-422): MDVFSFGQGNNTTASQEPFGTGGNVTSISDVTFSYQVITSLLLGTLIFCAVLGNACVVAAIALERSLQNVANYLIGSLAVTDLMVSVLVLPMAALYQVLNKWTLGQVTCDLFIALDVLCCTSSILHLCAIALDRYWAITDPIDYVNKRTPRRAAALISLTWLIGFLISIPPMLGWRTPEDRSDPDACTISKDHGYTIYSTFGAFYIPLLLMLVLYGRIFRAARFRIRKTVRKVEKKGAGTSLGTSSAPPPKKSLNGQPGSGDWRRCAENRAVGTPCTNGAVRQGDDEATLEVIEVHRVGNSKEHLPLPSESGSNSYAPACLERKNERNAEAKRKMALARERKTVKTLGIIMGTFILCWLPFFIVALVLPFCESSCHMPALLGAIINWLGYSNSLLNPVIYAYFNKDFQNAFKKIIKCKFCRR
Description: The serotoninergic properties of the compounds of this invention were established by the procedure of Hall et al., J. Neurochem.

inhibition at 1 µM [2] [%] | inhibition at 1 µM [3] [%] | Ki [3] [nM] | inhibition at 0.1 µM ([3]; 100 nM test compound, read-out: % Inhibition at 100 nM (Affinity for 5-HT1A Receptor Sites)) [%] | Structure (SMILES) | clinical efficacy as anxiolytic-antidepressant agents (in words) [1]
38 | 95 | 45 |  | O=C(NCCCN1CCN(c2cccc(Cl)c2)CC1)NC12CC3CC(CC(C3)C1)C2 [Example 6, N-[3-[4-(3-chlorophenyl)-1-piperazinyl]propyl]-N'-tricyclo[3.3.1.1(3,7)]dec-1-ylurea] | 
15 | 91 | 52 |  | O=C(NCCN1CCN(c2ncccn2)CC1)NC12CC3CC(CC(C3)C1)C2 [Example 1, N-[2-[4-(2-pyrimidyl)-1-piperazinyl]ethyl]-N'-tricyclo[3.3.1.1(3,7)]dec-1-ylurea] | 
10 | 100 | 7 |  | O=C(NCCCN1CCN(c2ncccn2)CC1)NC12CC3CC(CC(C3)C1)C2 [Example 4, N-[3[4-(2-pyrimidyl)-1-piperazinyl]propyl]-N'-tricyclo[3.3.1.1(3,7)]dec-1-ylurea] | 

Second part, the compound before the results:

Structure (SMILES) | inhibition at 1 µM [2] [%] | inhibition at 1 µM [3] [%] | Ki [3] [nM] | inhibition at 0.1 µM ([3]; 100 nM test compound, read-out: % Inhibition at 100 nM (Affinity for 5-HT1A Receptor Sites)) [%] | clinical efficacy as anxiolytic-antidepressant agents (in words) [1]
Cc1nc2sccn2c(=O)c1CCN1CCC(=C(c2ccc(F)cc2)c2ccc(F)cc2)CC1 [Ritanserin] |  |  |  |  | demonstrate clinical efficacy as anxiolytic-antidepressant agents
COc1ccccc1N1CCN(CCCNC(=O)NC23CC4CC(CC(C4)C2)C3)CC1 [Example 5, N-[3-[4-(2-methoxyphenyl)-1-piperazinyl]propyl]-N'-tricyclo[3.3.1.1(3,7)]dec-1-ylurea] | 66 | 100 |  |  | 
COc1ccccc1N1CCN(CCNC(=O)NC23CC4CC(CC(C4)C2)C3)CC1 [Example 2] |  | 100 |  |  | 
O=C(NCCN1CCN(c2cccc(Cl)c2)CC1)NC12CC3CC(CC(C3)C1)C2 [Example 3, N-[2-[4-(3-chlorophenyl)-1-piperazinyl]ethyl]-N'-tricyclo[3.3.1.1(3,7)]dec-1-ylurea] | 56 |  |  | 54 | 
